In US6602862B1, “1-Amino-alkylcyclohexanes as trypanocidal agents” (Merz Pharma GmbH & Co., KGAA, priority 2000, dated 2003):
Like-named read-outs stand apart in the source and are kept apart here. Each block holds one compound with its values, some of them ahead of it.

Assays:
[1] = tested on: Bloodstream form T-brucei (strain 427); test: Growth inhibition of cultured bloodstream form T. brucei, 3 days in presence of test compounds; settings: for inhibition at 5 µg/mL: read-out: (Inhibition) (5 μg ml^−1); for (Inhibition) (5 μg ml^−1): preliminary screen at 5 μg ml^−1, 3 days
[2] = patients, advanced stage of the disease; cited from earlier work
[3] = tested on: bloodstream form of the African trypanosome, Trypanosoma brucei; settings: reported recently; cited from earlier work
[4] = concentration inhibiting growth by 50%, 3 days, 37°, pH 7.4, ±SD
[5] = concentration inhibiting growth by 90%, 3 days, 37°, pH 7.4, ±SD, ++ = six experiments
[6] = Trypanosoma brucei, 72 h, pH 7.4
[7] = Trypanosoma brucei, 72 h, read-out: IC90

SMILES: CC1(N)CCCCC1 [Compound 641, 1-Amino-1-methylcyclohexane]
- inhibition at 5 µg/mL ([1]; Trypanosoma brucei, 72 h): 86%

SMILES: C[C@H]1CCC[C@](C)(N)C1 (relative stereo) [Compound 625, 1-Amino-1,3 (trans)-dimethylcyclohexane]
- (Inhibition) (5 μg ml^−1) [1]: (0%)

SMILES: CC1(C)CC(C)(C)CC(C)(CCN)C1 [Compound 662, 2-(1,3,3,5,5-Pentamethylcyclohexyl-1) ethylamine]
- IC50 [1, 4]: 0.24 ± 0.03 µg/mL
- IC90 [1, 5]: 0.38 ± 0.08++ μg ml−1

SMILES: CCC1CC(C)(C)CC(C)(N)C1 (stereo not drawn) [Compound 633, 1-Amino-1,3,3-trimethyl-5 (trans) ethylcyclohexane]
- inhibition at 5 µg/mL ([1]; Trypanosoma brucei, 72 h): 68%

SMILES: Nc1nc(N)nc(Nc2ccc([As]3SCC(CO)S3)cc2)n1 (stereo not drawn) [Melarsoprol]
- patient mortality due to arsenic encephalopathy [2]: 5 to 10%

SMILES: CN(C)C1(C)CC(C)(C)CC(C)(C)C1 [Compound 642, N,N-dimethyl-1-amino-1,3,3,5,5-pentamethylcyclohexane]
- inhibition at 5 µg/mL ([1]; Trypanosoma brucei, 72 h): 21%

SMILES: CC(N)C12CC3CC(CC(C3)C1)C2 (stereo not drawn) [rimantadine]
- sensitivity of bloodstream form T. brucei [3]: sensitive

- IC50 [1, 4]: 0.57 ± 0.13 µg/mL
- IC90 [1, 5]: 0.77 ± 0.15++ μg ml−1
SMILES: CCC[C@H]1CC(C)(C)C[C@@](C)(N)C1 (relative stereo) [Compound 634, cis-3-Propyl-1,5,5-trimethylcyclohexylamine]

- IC50 [1, 6]: 1.54 ± 0.08 µg/mL
- IC90 [1, 6]: 2.33 ± 0.24 µg/mL
SMILES: CCCC1(C)CCCC(C)(N)C1 (stereo not drawn) [Compound 617, 1-Amino-1,3-dimethyl-3-propylcyclohexane]

- IC50 [1, 4]: 2.19 ± 0.69 µg/mL
- IC90 [1, 5]: 3.59 ± 0.17 µg/mL
SMILES: CCCC1(C)CC(C)CC(C)(N)C1 (stereo not drawn) [Compound 618, 1-Amino-1,3 (trans),5 (trans)-trimethyl-3(cis)-propylcyclohexane]

- IC50 [1, 4]: 2.23 ± 0.33 µg/mL
- IC90 [1, 5]: 3.67 ± 0.06 µg/mL
SMILES: CCC[C@H]1CC(C)(C)C[C@](C)(N)C1 (relative stereo) [Compound 635, trans-3-Propyl-1,5,5-trimethylcyclohexylamine]

SMILES: CC1(C)CCCC(C)(N)C1 (stereo not drawn) [Compound 621, 1-Amino-1,3,3-trimethylcyclohexane]
- inhibition at 5 µg/mL ([1]; Trypanosoma brucei, 72 h): 40%

- IC50 [1, 4]: 1.54 ± 0.02 µg/mL
- IC90 [1, 5]: 1.95 ± 0.03 µg/mL
SMILES: CCCC1CCCC(C)(N)C1 (stereo not drawn) [Compound 628, 1-Methyl-3-cis-propylcyclohexylamine]

SMILES: CCC1(C)CCCC(C)(N)C1 (stereo not drawn) [Compound 620, 1-Amino-1,3-dimethyl-3-ethylcyclohexane]
- inhibition at 5 µg/mL ([1]; Trypanosoma brucei, 72 h): 25%

- IC50 [1, 6]: 1.37 ± 0.19 µg/mL
- IC90 [1, 6]: 1.96 ± 0.03 µg/mL
- IC90 [1, 7]: < 2 µg/mL
SMILES: CCNC1(C)CC(C)(C)CC(C)(C)C1 [Compound 639, N-Ethyl-1,3,3,5,5-pentamethylcyclohexylamine]

- IC50 [1, 4]: 0.22 ± 0.02 µg/mL
- IC90 [1, 5]: 0.29 ± 0.01 µg/mL
SMILES: CC(C)(N)CC1CC(C)(C)CC(C)(C)C1 [Compound 645, 2-Methyl-1-(3,3,5,5-tetramethylcyclohexyl)propyl-2-amine]

- IC50 [1, 6]: 2.92 ± 0.19 µg/mL
- IC90 [1, 6]: 3.8 ± 0.07 µg/mL
SMILES: CC[C@@H]1CC(C)(C)C[C@](C)(N)C1 (relative stereo) [Compound 632, 1-Amino-1,3,3-trimethyl-5 (cis) ethylcyclohexane]

SMILES: C[C@@H]1CC(C)(C)C[C@@](C)(N)C1 (relative stereo) [Compound 607, 1-Amino-1,3,3,5(trans)-tetramethylcyclohexane]
- (Inhibition) (5 μg ml^−1) [1]: (17%)

SMILES: CC[C@H]1CCC[C@](C)(N)C1 (relative stereo) [Compound 629, 1-Amino-1-methyl-3 (trans) ethylcyclohexane]
- inhibition at 5 µg/mL ([1]; Trypanosoma brucei, 72 h): 2%

SMILES: CCC[C@H]1CCC[C@](C)(N)C1 (relative stereo) [Compound 627, 1-Amino-1-methyl-3 (trans) propylcyclohexane]
- (Inhibition) (5 μg ml^−1) [1]: (17%)

SMILES: CCCC1(N)CC(C)(C)CC(C)(C)C1 [Compound 601, 1-Amino-1-propyl-3,3,5,5-tetramethylcyclohexane]
- IC50 [1, 6]: 1.43 ± 0.08 µg/mL
- IC90 [1, 6]: 1.87 ± 0.02 µg/mL
- IC90 [1, 7]: < 2 µg/mL

SMILES: CCC1(C)CC(C)CC(C)(N)C1 (stereo not drawn) [Compound 622, cis-3-Ethyl-1, trans-3, trans-5-trimethylcyclohexamine]
- (Inhibition) (5 μg ml^−1) [1]: (40%)

- IC50 [1, 6]: 1.44 ± 0.09 µg/mL
- IC90 [1, 6]: 1.89 ± 0.02 µg/mL
- IC90 [1, 7]: < 2 µg/mL
SMILES: CC1(C)CC(CN)CC(C)(C)C1 [Compound 580, 3,3,5,5-Tetramethylcyclohexylmethylamine]

- IC50 [1, 6]: 1.45 ± 0.07 µg/mL
- IC90 [1, 6]: 1.93 ± 0.02 µg/mL
SMILES: CCC1(C)CC(C)(C)CC(C)(N)C1 (stereo not drawn) [Compound 615, 1-Amino-1,3,5,5-tetramethyl-3-ethylcyclohexane]

- IC50 [1, 6]: 0.25 ± 0.01 µg/mL
- IC90 [1, 6]: 0.29 ± 0.01 µg/mL
SMILES: CCCC1(CCC)CC(C)(C)CC(C)(N)C1 (stereo not drawn) [Compound 626, 1,3,3-Trimethyl-5,5-dipropylcyclohexylamine]

- IC50 [1, 6]: 0.23 ± 0.02 µg/mL
- IC90 [1, 6]: 0.31 ± 0.03 µg/mL
SMILES: CC1(C)CC(CCN)CC(C)(C)C1 [Compound 644, 2-(3,3,5,5-Tetramethylcyclohexyl)ethylamine]

- IC50 [1, 6]: 0.55 ± 0.11 µg/mL
- IC90 [1, 6]: 0.88 ± 0.09 µg/mL
SMILES: CCCC1(C)CC(C)(C)CC(C)(N)C1 (stereo not drawn) [Compound 614, 3-Propyl-1,3,5,5-Tetramethylcyclohexylamine]
